PMC9343605, “Structural insights into ligand recognition and selectivity of somatostatin receptors” (Cell Research, 2022)
Positions of bridges follow the written chain, without caps; N, C: chain ends. Residues, ends and D or L forms follow the SMILES beside them.

Tests used:
SSTR4 [1] = biological target: T1, SSTR4 (Homo sapiens, UniProt P31391, N199A); experiment: cAMP accumulation assay (agonist-induced inhibition of forskolin-stimulated cAMP), SSTR4, HEK293F; format: cell-based; set-up: expressed in transfected cells; host or cells: HEK293F; details: SSTR4 mutant N199^ECL2A, mean ± SEM;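 also: transiently transfected cells incubated 40 min at room temperature with 4 µM forskolin and graded ligand, cAMP read by LANCE Ultra TR-FRET kit, values normalized to WT receptor per ligand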
T1 sequence (P31391 whole entry N199A): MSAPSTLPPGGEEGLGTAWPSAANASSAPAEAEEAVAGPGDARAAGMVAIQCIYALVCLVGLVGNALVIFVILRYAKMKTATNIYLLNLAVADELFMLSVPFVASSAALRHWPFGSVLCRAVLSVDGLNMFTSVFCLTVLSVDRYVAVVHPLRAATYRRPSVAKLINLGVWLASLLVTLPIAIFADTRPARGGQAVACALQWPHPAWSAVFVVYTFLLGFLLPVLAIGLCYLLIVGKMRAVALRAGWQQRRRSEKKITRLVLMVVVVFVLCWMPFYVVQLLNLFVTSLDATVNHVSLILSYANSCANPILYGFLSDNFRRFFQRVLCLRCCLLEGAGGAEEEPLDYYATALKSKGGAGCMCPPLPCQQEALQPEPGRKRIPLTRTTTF
Method: (§1) HEK293F cells were transiently transfected with WT or mutant SSTR2/SSTR4 using transfection reagent (PEI MAX 2000, Polysciences) and incubated at 37 °C in 5% CO2. Forty-eight hours after transfection, cells were centrifuged and resuspended in stimulation buffer (Hanks’ balanced salt solution (HBSS) supplemented with 5 mM HEPES, 0.5 mM IBMX and 0.1% (w/v) bovine serum albumin (BSA), pH 7.4) to a density of 200,000 cells/mL and added to 384-well white plates (PerkinElmer, 1000 cells/well). cAMP accumulation was measured by a LANCE Ultra cAMP kit (PerkinElmer) according to the manufacturer’s instructions. In brief, transfected cells were incubated for 40 min in stimulation buffer with 2.5 μL forskolin (SSTR2: 2 μM; SSTR4: 4 μM) and gradient concentration of ligand at RT. The reactions were stopped by addition of lysis buffer containing 5 μL Eu-cAMP tracer and 5 μL ULight-anti-cAMP. Plates were then incubated for 60 min at RT and time-resolved FRET signals were measured at 620 nm and 665 nm by an EnVision multilabel plate reader (PerkinElmer). Data were analyzed in GraphPad PRISM 8 and all values were normalized to the WT for each ligand. All outcomes were repeated at least three times.
(§2) aMutants represent that mutations were introduced separately into the WT receptors and
(§3) transiently expressed in HEK 293F cells.
(§4) bThe EC50 ratio was shown as EC50(mutant)/EC50(WT), indicating the shift between the WT
(§5) and mutant curves, reflecting the effect of the mutations on receptor signaling.
(§6) cData are shown as mean ± S.E.M. from at least three independent experiments
(§7) performed in technical triplicate. One-way ANOVA was performed followed by
(§8) Dunnett’s post-test and compared with WT. The P value was defined as: *P<0.05;
(§9) d The span is defined as the window between the maximal agonists response (Emax) and
(§10) e Sample size; the number of independent experiments performed in technical triplicate.
(§11) f Receptor expression level of HEK 293F cells was determined independently by flow
(§12) cytometry with anti-FLAG antibody and shown as per cent compared to the WT.

SSTR4 [2] = biological target: T2, SSTR4 (Homo sapiens, UniProt P31391, F275A); experiment: as above; format: cell-based; set-up: expressed in transfected cells; host or cells: HEK293F; details: SSTR4 mutant F275^6.51A, mean ± SEM
T2 sequence (P31391 whole entry F275A): as the sequence (P31391 whole entry N199A) above, with A199N, F275A counted along it
Method: as §1, §2, §3, §4, §5, §6, §7, §8, §9, §10, §11, §12

SSTR4 [3] = biological target: T3, SSTR4 (Homo sapiens, UniProt P31391, T215A); experiment: as above; format: cell-based; set-up: expressed in transfected cells; host or cells: HEK293F; details: SSTR4 mutant T215^5.42A, mean ± SEM
T3 sequence (P31391 whole entry T215A): as the sequence (P31391 whole entry N199A) above, with A199N, T215A counted along it
Method: as §1, §2, §3, §4, §5, §6, §7, §8, §9, §10, §11, §12

SSTR4 [4] = biological target: T4, SSTR4 (Homo sapiens, UniProt P31391, M130A); experiment: as above; format: cell-based; set-up: expressed in transfected cells; host or cells: HEK293F; details: SSTR4 mutant M130^3.36A, mean ± SEM
T4 sequence (P31391 whole entry M130A): as the sequence (P31391 whole entry N199A) above, with M130A, A199N counted along it
Method: as §1, §2, §3, §4, §5, §6, §7, §8, §9, §10, §11, §12

SSTR4 [5] = biological target: T5, SSTR4 (Homo sapiens, UniProt P31391); experiment: as above; format: cell-based; set-up: expressed in transfected cells; host or cells: HEK293F; details: HEK293F, WT SSTR4, mean ± SEM
T5 sequence (P31391 whole entry): as the sequence (P31391 whole entry N199A) above, with A199N counted along it
Method: as §1, §2, §3, §4, §5, §6, §7, §8, §9, §10, §11, §12

SSTR4 [6] = biological target: T6, SSTR4 (Homo sapiens, UniProt P31391, Q279A); experiment: as above; format: cell-based; set-up: expressed in transfected cells; host or cells: HEK293F; details: SSTR4 mutant Q279^6.55A, mean ± SEM
T6 sequence (P31391 whole entry Q279A): as the sequence (P31391 whole entry N199A) above, with A199N, Q279A counted along it
Method: as §1, §2, §3, §4, §5, §6, §7, §8, §9, §10, §11, §12

SSTR4 [7] = biological target: T1, SSTR4; experiment: Whole cell binding assay, SSTR4, competition with 125I-Tyr11-SST14, CHO-K1; set-up: expressed in transfected cells; details: CHO-K1; SSTR4 mutant N199^ECL2A; mean ± SEM; read-out: Span
Method: (§13) For SSTR2 and SSTR4, CHO-K1 cells were cultured in F12 medium with 10% FBS and seeded at a density of 30,000 cells/well in Isoplate-96 plates (PerkinElmer). Twenty-four hours after transfection with the WT or mutant SSTR2/SSTR4, CHO-K1 cells were washed twice and incubated with blocking buffer (F12 supplemented with 25 mM HEPES and 0.1% (w/v) BSA, pH 7.4) for 2 h at 37 °C. […] Following incubation, cells were washed three times with ice-cold PBS and lysed by 50 μL lysis buffer (PBS supplemented with 20 mM Tris-HCl, 1% Triton X-100, pH 7.4). The radioactivity was subsequently counted (counts/min, CPM) in a scintillation counter (MicroBeta[2] Plate Counter, PerkinElmer) using a scintillation cocktail (OptiPhaseSuperMix, PerkinElmer). Data were analyzed by nonlinear regression using GraphPad PRISM 8.
(§14) aMutants represent that all mutations were introduced separately into the WT receptors
and expressed in CHO K1 cells.
(§15) bThe IC50 ratio was shown as IC50(mutant)/IC50(WT), indicating the shift between the WT
(§16) and mutant curves, reflecting the effect of the mutations on ligand binding.
(§17) cData are shown as mean ± S.E.M. form at least three independent experiments
as §7
(§18) Dunnett’s post-test and compared with WT.
as §9, §10

SSTR4 [8] = biological target: SSTR4 (Homo sapiens, UniProt P31391, D126A); experiment: as above; set-up: expressed in transfected cells; details: CHO-K1; SSTR4 mutant D126^3.32A; mean ± SEM; read-out: Span
Chain of SSTR4 (Homo sapiens, UniProt P31391, D126A) (P31391 whole entry D126A): as the sequence (P31391 whole entry N199A) above, with D126A, A199N counted along it
Method: as §13, §14
and expressed in CHO K1 cells.
as §15, §16, §17, §7, §18, §9, §10

SSTR4 [9] = biological target: T2, SSTR4; experiment: as above; set-up: expressed in transfected cells; details: CHO-K1; SSTR4 mutant F275^6.51A; mean ± SEM; read-out: Span
Method: as §13, §14
and expressed in CHO K1 cells.
as §15, §16, §17, §7, §18, §9, §10

SSTR4 [10] = biological target: T3, SSTR4; experiment: as above; set-up: expressed in transfected cells; details: SSTR4 mutant T215^5.42A, mean ± SEM
Method: as §13, §14
and expressed in CHO K1 cells.
as §15, §16, §17, §7, §18, §9, §10

SSTR4 [11] = biological target: T4, SSTR4; experiment: as above; set-up: expressed in transfected cells; details: CHO-K1; SSTR4 mutant M130^3.36A; mean ± SEM; read-out: Span
Method: as §13, §14
and expressed in CHO K1 cells.
as §15, §16, §17, §7, §18, §9, §10

SSTR4 [12] = biological target: SSTR4 (Homo sapiens, UniProt P31391, Y301A); experiment: as above; set-up: expressed in transfected cells; details: CHO-K1; SSTR4 mutant Y301^7.43A; mean ± SEM; read-out: Span
Chain of SSTR4 (Homo sapiens, UniProt P31391, Y301A) (P31391 whole entry Y301A): as the sequence (P31391 whole entry N199A) above, with A199N, Y301A counted along it
Method: as §13, §14
and expressed in CHO K1 cells.
as §15, §16, §17, §7, §18, §9, §10

SSTR4 [13] = biological target: T5, SSTR4; experiment: as above; set-up: expressed in transfected cells; details: WT SSTR4, mean ± SEM
Method: as §13, §14
and expressed in CHO K1 cells.
as §15, §16, §17, §7, §18, §9, §10

SSTR4 [14] = biological target: T6, SSTR4; experiment: as above; set-up: expressed in transfected cells; details: SSTR4 mutant Q279^6.55A, mean ± SEM
Method: as §13, §14
and expressed in CHO K1 cells.
as §15, §16, §17, §7, §18, §9, §10

SSTR4 [15] = biological target: T7, SSTR4 (Homo sapiens, UniProt P31391, N293A); experiment: as above; details: SSTR4 mutant N293^7.35A, mean ± SEM
T7 construct: expressed in transfected cells; host or cells: HEK293F
T7 sequence (P31391 whole entry N293A): as the sequence (P31391 whole entry N199A) above, with A199N, N293A counted along it
Method: as §13, §14
and expressed in CHO K1 cells.
as §15, §16, §17, §7, §18, §9, §10

SSTR4 [16] = biological target: SSTR4 (Homo sapiens, UniProt P31391, S208A); experiment: as above; details: SSTR4 mutant S208^5.35A, mean ± SEM
Chain of SSTR4 (Homo sapiens, UniProt P31391, S208A) (P31391 whole entry S208A): as the sequence (P31391 whole entry N199A) above, with A199N, S208A counted along it
Method: as §13, §14
and expressed in CHO K1 cells.
as §15, §16, §17, §7, §18, §9, §10

SSTR4 [17] = biological target: T8, SSTR4 (Homo sapiens, UniProt P31391, N282A); experiment: cAMP accumulation assay (agonist-induced inhibition of forskolin-stimulated cAMP), SSTR4, HEK293F; format: cell-based; details: SSTR4 mutant N282^6.58A, mean ± SEM;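 also: transiently transfected cells incubated 40 min at room temperature with 4 µM forskolin and graded ligand, cAMP read by LANCE Ultra TR-FRET kit, values normalized to WT receptor per ligand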
T8 construct: expressed in transfected cells; host or cells: HEK293F
T8 sequence (P31391 whole entry N282A): as the sequence (P31391 whole entry N199A) above, with A199N, N282A counted along it
Method: as §1, §2, §3, §4, §5, §6, §7, §8, §9, §10, §11, §12

SSTR4 [18] = biological target: SSTR4 (Homo sapiens, UniProt P31391, R110A); experiment: as above; format: cell-based; details: SSTR4 mutant R110^ECL1A, mean ± SEM
Chain of SSTR4 (Homo sapiens, UniProt P31391, R110A) (P31391 whole entry R110A): as the sequence (P31391 whole entry N199A) above, with R110A, A199N counted along it
Method: as §1, §2, §3, §4, §5, §6, §7, §8, §9, §10, §11, §12

SSTR4 [19] = biological target: T7, SSTR4; experiment: as above; format: cell-based; details: SSTR4 mutant N293^7.35A, mean ± SEM
Method: as §1, §2, §3, §4, §5, §6, §7, §8, §9, §10, §11, §12

SSTR4 [20] = biological target: SSTR4 (Homo sapiens, UniProt P31391, N293F); experiment: as above; format: cell-based; details: HEK293F; SSTR4 mutant N293^7.35F; mean ± SEM; read-out: Span
Chain of SSTR4 (Homo sapiens, UniProt P31391, N293F) (P31391 whole entry N293F): as the sequence (P31391 whole entry N199A) above, with A199N, N293F counted along it
Method: as §1, §2, §3, §4, §5, §6, §7, §8, §9, §10, §11, §12

SSTR4 [21] = biological target: SSTR4 (Homo sapiens, UniProt P31391, S208W); experiment: as above; format: cell-based; details: SSTR4 mutant S208^5.35W, mean ± SEM
Chain of SSTR4 (Homo sapiens, UniProt P31391, S208W) (P31391 whole entry S208W): as the sequence (P31391 whole entry N199A) above, with A199N, S208W counted along it
Method: as §1, §2, §3, §4, §5, §6, §7, §8, §9, §10, §11, §12

SSTR4 [22] = biological target: T9, SSTR4 (Homo sapiens, UniProt P31391, L297A); experiment: as above; format: cell-based; details: SSTR4 mutant L297^7.39A, mean ± SEM
T9 construct: expressed in transfected cells; host or cells: HEK293F
T9 sequence (P31391 whole entry L297A): as the sequence (P31391 whole entry N199A) above, with A199N, L297A counted along it
Method: as §1, §2, §3, §4, §5, §6, §7, §8, §9, §10, §11, §12

SSTR4 [23] = biological target: T10, SSTR4 (Homo sapiens, UniProt P31391, F211A); experiment: as above; format: cell-based; details: SSTR4 mutant F211^5.38A, mean ± SEM
T10 construct: expressed in transfected cells; host or cells: HEK293F
T10 sequence (P31391 whole entry F211A): as the sequence (P31391 whole entry N199A) above, with A199N, F211A counted along it
Method: as §1, §2, §3, §4, §5, §6, §7, §8, §9, §10, §11, §12

[24] = cited from earlier work
From the text: Along with increased knowledge of the pharmacological effects of these receptors, medical application of SST and its analogs has expanded. A considerable amount of effort has been made to develop new therapeutics for oncology of SSTRs. […] It was found recently that radiolabeled SSTR antagonists produced superi ...

SSTR1–5 = details: cited from earlier work
From the text: Somatostatin (SST), an inhibitory hormone that distributes widely in both human central nervous system and periphery tissues negatively regulates multiple hormone releases (growth hormone, glucagon, insulin, gastrin and cholecystokinin) and cell proliferation through SST receptors (SSTRs).[1]–[4] There are five types of SSTRs, namely SSTR1–SSTR5, which are divided into two subfamilies: SRIF1 (SSTR2, SSTR3, SSTR5) and SRIF2 (SSTR1, SSTR4) based on phylogenetic, sequence homology and ligand binding profiles.[5] Two bioactive SST peptides, SST-14 and its N-terminally extended form SST-28, have be ...

[25] = at least three independent experiments

Compound: C[C@@H]1NC(=O)[C@H](Cc2ccccc2)NC(=O)[C@@H](N)CSSC[C@@H](C(=O)O)NC(=O)[C@H](Cc2ccccc2)NC(=O)[C@H]([C@@H](C)O)NC(=O)[C@H](CCCCN)NC(=O)[C@H](Cc2c[nH]c3ccccc23)NC1=O [Peptide3] (H-CFAWKTFC-OH; disulfide 1-8)
- Emax (SSTR4 [1]; HEK293F, read-out: Span): 93 ± 6%
- EC50 (SSTR4 [1]): 15.1 nM
- Emax (SSTR4 [2]; HEK293F, read-out: Span): 20 ± 5%
- EC50 (SSTR4 [2]): 676 nM
- Emax (SSTR4 [3]; HEK293F, read-out: Span): 79 ± 6%
- EC50 (SSTR4 [3]): 0.479 nM
- Emax (SSTR4 [4]; HEK293F, read-out: Span): 72 ± 4%
- EC50 (SSTR4 [4]): 97.7 nM
- Emax (SSTR4 [5]; window between Emax and vehicle, read-out: Span): 100 ± 3%
- EC50 (SSTR4 [5]; [25]): 1.26 nM
- Emax (SSTR4 [6]; HEK293F, read-out: Span): 77 ± 5%
- EC50 (SSTR4 [6]): 5.01 nM
- Emax (SSTR4 [7]): 26 ± 7%
- Emax (SSTR4 [8]): 23 ± 8%
- Emax (SSTR4 [9]): 23 ± 5%
- Emax (SSTR4 [10]; CHO-K1, read-out: Span): 96 ± 15%
- IC50 (SSTR4 [10]): 0.0676 nM
- Emax (SSTR4 [11]): 26 ± 5%
- Emax (SSTR4 [12]): 30 ± 16%
- Emax (SSTR4 [13]; CHO-K1, read-out: Span): 100 ± 7%
- IC50 (SSTR4 [13]; [25]): 3.8 nM
- Emax (SSTR4 [14]; CHO-K1, read-out: Span): 45 ± 12%
- IC50 (SSTR4 [14]): 1.35 nM
- Emax (SSTR4 [15]; CHO-K1, read-out: Span): 132 ± 12%
- IC50 (SSTR4 [15]): 1.29 nM
- Emax (SSTR4 [16]; CHO-K1, read-out: Span): 152 ± 11%
- IC50 (SSTR4 [16]): 0.0708 nM
- Emax (SSTR4 [17]; HEK293F, read-out: Span): 48 ± 2%
- EC50 (SSTR4 [17]): 2.34 nM
- Emax (SSTR4 [18]; HEK293F, read-out: Span): 100 ± 6%
- EC50 (SSTR4 [18]): 1.91 nM
- Emax (SSTR4 [19]; HEK293F, read-out: Span): 106 ± 7%
- EC50 (SSTR4 [19]): 3.47 nM
- Emax (SSTR4 [20]): 16 ± 7%
- Emax (SSTR4 [21]; HEK293F, read-out: Span): 58 ± 6%
- EC50 (SSTR4 [21]): 1.12 nM
- Emax (SSTR4 [22]; HEK293F, read-out: Span): 99 ± 8%
- EC50 (SSTR4 [22]): 102 nM
- Emax (SSTR4 [23]; HEK293F, read-out: Span): 65 ± 5%
- EC50 (SSTR4 [23]): 145 nM

Compound: SST: Somatostatin, an inhibitory hormone
- half-life [24]: less than 3 min

Compound: SST-28: N-terminally extended form of bioactive SST peptide
- affinity for SSTR1–5 (SSTR1–5): high and equal affinity for SSTR1–5
